The target in assay [1] is T1, ligand-dependent interaction between PPARγ and CBP (Homo sapiens, UniProt P37231).
T1 construct: expressed in transfected cells; host or cells: yeast cell strain SFY526 (Clontech), transformed with pGBT9-PPARγ2 and pGAD424-CBP
In words: Yeast two-hybrid detection of ligand-dependent interaction between PPARγ and CBP (β-galactosidase reporter). The note with it: for β-galactosidase activity (lacZ gene expression): yeast SFY526 containing both plasmids pGBT9-PPARγ2 and pGAD424-CBP, substance added at 10^−6M (FIG. 2A/3A), cultivation 4 to 5 hours; for concentration dependence of the increase in β-galactosidase activity: yeast containing both plasmids, varying concentrations of substance (FIG. 2B/3B). Format: cell-based. The text has this: The 1574 base pair fragment containing PPARγ2 gene obtained in (1) above was cleaved at the XhoI recognition site designed at the terminus and the BamHI recognition site in the base sequence. The fragments obtained were inserted into the BamHI-SalI site of yeast expression vector pGBT9 (available from Clontech Co., vector for yeast two hybrid system) containing the gene of the DNA binding domain of transcription factor GAL4 (No. 1 to 147 amino acid residues of GAL4). As a result, plasmid pGBT9-PPARγ2 (FIG. 1A) for expressing a fused protein comprising the portion downstream of the No. 181 amino acid residue of human PPARγ2 (ligand binding domain) and the DNA binding domain of GAL4 was obtained. In FIG. 1A, GAL4 bd stands for a GAL4 DNA binding domain sequence, ^PADH1 stands for alcohol dehydrogenase gene promoter, ^TADH1 stands for an alcohol dehydrogenase gene terminator, Amp^r stands for an ampicillin resistant gene, ColE1 ori stands for a collicin E1 replication start point, and 2 μ ori stands for a 2 μ replication start point.
The 1411 base pair fragment containing CBP gene obtained in (1) above (N-terminal domain) was cleaved at the BamHI recognition site and BglII recognition site designed at the termini. The fragments obtained were inserted into the BamHI-BglII site of yeast expression vector pGAD424 (available from Clontech Co., vector for yeast two hybrid system) containing the gene of the transcriptional activation domain of GAL4 (No. 768 to 881 amino acid residues of GAL4). As a result, plasmid pGAD424-CBP (FIG. 1B) for expressing a fused protein comprising the portion of the No. 1 to 464 amino acid residues of mouse CBP (N-terminal domain) and the transcriptional activation domain of GAL4 was obtained. In FIG. 1B, GAL4 ad stands for GAL4 transcriptional activation domain sequence and others have the same meanings as in FIG. 1A.
Using yeast cell strain SFY526 (available from Clontech Co.), the fused protein expression plasmids pGBT9-PPARγ2 and pGAD424-CBP obtained in (2) and (3) above were introduced therein. The cell strain SFY526 (genotype was MATa, ura3-52, his3-200, ade2-101, lys2-801, trp1-901, leu2-3, 112, canr, gal4-542, gal80-538, URA3::GAL1-lacZ) had incorporated in the chromosome a fused gene of GAL1 and lacZ and is a cell strain having deletion mutation relative to GAL4 gene (Bartel et al., Bio Techniques, vol. 14, pp. 920–924, 1993). The transformation was performed by the lithium acetate method and incubated in a synthetic medium depleted of tryptophan and leucine which are selection markers for the respective plasmids to perform screening to obtain a transformant in which only one of the plasmids was introduced and a transformant in which the both plasmids were introduced.
The yeast transformant containing both of the plasmids pGBT9-PPARγ and pGAD424-CBP or the yeast transformant containing only one of the plasmids was cultivated in YPD medium (liquid medium). Upon cultivation, 15-deoxy-Δ^12,14-prostaglandin J2, which is a ligand of PPARγ2 in a living body, diluted with YPD medium was added (or not added). 15-deoxy-Δ^12,14-prostaglandin J2 (hereinafter abbreviated to as “15d-PGJ2”) used was commercially available (available from CAYMAN CHEMICALS, CO., U.S.A.). The cultivation was performed for 4 to 5 hours. After the cultivation, the yeast cells were recovered by centrifugation and β-galactosidase activity was measured. […]

Assay [2] relates to KK-Ay mouse. The note with it: Japanese Provisional Patent Publications No. 56675/1989 and No. 167225/1990; cited from earlier work.

T1 sequence (P37231 182-505): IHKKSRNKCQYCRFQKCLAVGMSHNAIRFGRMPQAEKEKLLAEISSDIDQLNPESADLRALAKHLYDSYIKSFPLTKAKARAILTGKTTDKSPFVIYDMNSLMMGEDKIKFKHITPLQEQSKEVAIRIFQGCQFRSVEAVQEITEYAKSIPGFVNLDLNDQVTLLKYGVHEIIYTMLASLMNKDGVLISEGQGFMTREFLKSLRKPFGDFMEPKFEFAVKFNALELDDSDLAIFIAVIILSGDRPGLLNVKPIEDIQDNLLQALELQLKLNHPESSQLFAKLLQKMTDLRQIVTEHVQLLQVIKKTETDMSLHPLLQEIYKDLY
T1 sequence (P45481 1-464 partner): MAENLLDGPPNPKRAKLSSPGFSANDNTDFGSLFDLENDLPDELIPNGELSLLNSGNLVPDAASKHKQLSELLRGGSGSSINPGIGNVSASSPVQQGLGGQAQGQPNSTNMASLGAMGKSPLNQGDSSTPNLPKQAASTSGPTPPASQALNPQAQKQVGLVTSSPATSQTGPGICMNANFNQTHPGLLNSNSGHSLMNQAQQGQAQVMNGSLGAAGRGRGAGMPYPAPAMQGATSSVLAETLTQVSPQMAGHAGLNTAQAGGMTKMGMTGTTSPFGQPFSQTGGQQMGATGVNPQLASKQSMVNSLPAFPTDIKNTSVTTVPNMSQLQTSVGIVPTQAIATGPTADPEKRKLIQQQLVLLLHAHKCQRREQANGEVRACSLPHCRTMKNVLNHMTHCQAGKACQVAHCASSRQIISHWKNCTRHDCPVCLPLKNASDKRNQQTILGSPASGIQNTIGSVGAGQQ

As for `O=C1NC(=O)C(Cc2ccc3oc(Cc4ccc5ccccc5c4)nc3c2)S1` (stereo not drawn) [T-174, 5-[[2-(2-naphthalenylmethyl)-5-benzoxazolyl]methyl]-2,4-thiazolidinedione], in assay [1] (conclusion from ligand-dependent PPARγ-CBP interaction in yeast two-hybrid system), the “identification as agonist for PPARγ” value is “identified as an agonist acting as a ligand to PPARγ”. In assay [1], the “β-galactosidase activity (lacZ gene expression)” value is on record as “an increase in β-galactosidase activity was observed only in the yeast containing both of the plasmids” and the “concentration dependence of the increase in β-galactosidase activity” value is given as “dependent on the concentration of T-174”. For the same molecule, the hypoglycemic effect entry in assay [2] is recorded as “hypoglycemic effect”.

In the case of `CCCCC/C=C/C=C1/C(=O)C=C[C@@H]1C/C=C\CCCC(=O)O` [15d-PGJ2, 15-deoxy-Δ^12,14-prostaglandin J2], in assay [1], the “β-galactosidase activity (lacZ gene expression)” value is given as “an increase in β-galactosidase activity” and the “concentration dependence of the increase in β-galactosidase activity” value was “dependent on the concentration of 15d-PGJ2”.
